# Test results reported in patent US20240108618A1, “KRAS G12C INHIBITOR DOSING REGIMENS” (Eli Lilly and Company, priority 2022, published 2024).
# Columns and labels:
# [1] = NCT04956640 Phase 1a monotherapy safety: treatment-emergent adverse events; conditions: in vivo
# Source text: (§1) A “DLT” is defined as any of the treatment-emergent adverse event (TEAEs), as defined by the National Cancer Institute's Common Terminology Criteria for Adverse Events, version 5.0 (NCI CTCAE v5.0), deemed clinically significant and occurring during the first 21 days of study drug per dose level per patient, unless the adverse event (AE) can be clearly related to the patient's underlying disease, other medical condition, or concomitant medications including any AEs attributed by the Investigator to the combination agent alone. A TEAE is defined as an AE that starts or worsens on or after the date of the first dose of study drug (for example on Study Day 1) through 28 days (+14 days window) after the date of the last dose of study drug or the first date starting new anticancer therapy, whichever is earlier. A Serious TEAE is defined as an TEAE that is grade 3 or higher based on severity grade assignment as defined by the National Cancer Institute's Common Terminology Criteria for Adverse Events, version 5.0 (NCI CTCAE v5.0). A Fatal TEAE is defined as an TEAE that is grade 5 based on severity grade assignment as defined by the National Cancer Institute's Common Terminology Criteria for Adverse Events, version 5.0 (NCI CTCAE v5.0). […]
# SW837 = SW837 (CRC) xenograft model; format: in vivo, mouse
# Protocol: (§2) For xenograft models of H1373, HCC44, MiaPaca-2, SW1463, SW837, KYSE-410 and UM-UC-3, typically 5-10×10^6 cells in a 1:1 matrigel mix (0.2 mL total volume) are implanted by subcutaneous injection in hind leg of nude mice. […] Treatment is initiated with oral administration (gavage) of testing compound or vehicle (20% captisol, 25 mM phosphate, pH2.0) in 0.2 mL volume when tumor size reaches approximately 200-300 mg. Tumor growth and body weight are monitored over time to evaluate efficacy and signs of toxicity. For EL3187 PDX model, frozen vials containing tumor fragments are thawed at 37° C. in a water bath. The tumor fragments are transferred to 50 mL Falcon tube and the ice cold DMEM medium is slowly added into the tube to a total volume of 35 mL. Then the tumor fragments are centrifuged at 130×g for 2 minutes at 4° C. and supernatant is aspirated. This washing step is repeated twice and the tumor fragments are resuspended in 10 mL DMEM for implantation into athymic nude-Foxn1nu mice (Envigo RMS, Inc., Mount Comfort, Indiana). Once tumor volumes reach 800 to 1000 mm^3, animals are sacrificed and tumors are harvested using aseptic technique. Fresh tumors are cut into 10 to 15 mm^3 fragments and placed into cold Gibco hibernate medium. The tumor fragments are subcutaneously implanted into animals with a 10 g trochar needle. When tumor size reaches 200 to 300 mm^3, the animals are randomized for compound treatment.
# (§3) Among models listed in Table 2, EL3187 is a patient-derived xenograft (PDX) model, and all other are tumor xenograft models.
# H358 lung tumor cells = assay: Anti-tumor growth activity in lung cancer H358 xenograft mouse model; format: in vivo
# Protocol: H358 lung tumor cells (10×10^6) are implanted by subcutaneous injection in hind leg of nude female mice (Taconic Biosciences). A total of 4 mice in each group are used for the efficacy study. Treatment is initiated with oral administration (gavage) of the test compound or vehicle (20% Captisol®, 25 mM phosphate, pH 2.0 in 0.2 mL volume) once or twice daily for 28 days when the tumor size reaches approximately 300 mg. Tumor growth and body weight are monitored over time to evaluate efficacy and signs of toxicity.
# H1373 = H1373 (lung) xenograft model; format: in vivo, mouse
# Protocol: as §2, §3
# [2] = NCT04956640 Phase 1b Cohort C2 (with cetuximab) safety: treatment-emergent adverse events
# Source text: as §1
# HCC44 = HCC44 (lung) xenograft model; format: in vivo, mouse
# Protocol: as §2, §3
smiles,measurement,setting,value
"C=CC(=O)N1CCN2C(=O)c3cc(F)c(-c4ccc(F)c5sc(N)c(C#N)c45)c(Cl)c3OCC[C@H]2C1 (single isomer, unassigned) [Formula I]",tolerability,[1],well tolerated
same,tumor growth inhibition (%) or regression (− %),SW837; 5 mg/kg BID x28,83.6%
same,tumor growth inhibition (%) or regression (− %),SW837; 5 mg/kg QD x28,18.2%
same,tumor growth inhibition (%) or regression (− %),SW837; 10 mg/kg BID x28,62.1%
same,tumor growth inhibition (%) or regression (− %),SW837; 10 mg/kg QD x28,95.2%
same,tumor growth inhibition (%) or regression (− %),SW837; 30 mg/kg BID x28,−23.8%
same,tumor growth inhibition (%) or regression (− %),SW837; 30 mg/kg QD x28,83.5%
same,% Regression (Day 12),"H358 lung tumor cells; 30 mg/kg PO, BID",−72.14%
same,% Regression (Day 26),"H358 lung tumor cells; 30 mg/kg PO, BID",−67.68%
same,% tumor regression,H358 lung tumor cells; 30 mg/kg twice daily,−67.68 to −72.14%
same,animal body weight loss,H358 lung tumor cells; through the whole study,No significant animal body weight loss
same,tumor growth inhibition (%) or regression (− %),H1373; 5 mg/kg BID x28,−26.3%
same,tumor growth inhibition (%) or regression (− %),H1373; 5 mg/kg QD x28,97.9%
same,tumor growth inhibition (%) or regression (− %),H1373; 10 mg/kg BID x28,−49%
same,tumor growth inhibition (%) or regression (− %),H1373; 10 mg/kg QD x28,−21.3%
same,tumor growth inhibition (%) or regression (− %),H1373; 30 mg/kg QD x28,−49.7%
same,DLT,[2]; 100 mg BID,"One DLT, a grade 3 ALT/AST ratio increase"
same,permanent discontinuation due to TRAEs,[2]; in vivo,No Phase 1b Cohort C2 patient permanently discontinued
same,tumor growth inhibition (%) or regression (− %),HCC44; 5 mg/kg BID x28,57.5%
same,tumor growth inhibition (%) or regression (− %),HCC44; 5 mg/kg QD x28,28.3%
same,tumor growth inhibition (%) or regression (− %),HCC44; 10 mg/kg BID x28,61.8%
same,tumor growth inhibition (%) or regression (− %),HCC44; 10 mg/kg QD x28,32.7%
same,tumor growth inhibition (%) or regression (− %),HCC44; 30 mg/kg BID x28,84.1%
same,tumor growth inhibition (%) or regression (− %),HCC44; 30 mg/kg QD x28,77%
